According to US8450315B2, “Phosphoinositide 3-kinase inhibitor compounds and methods of use” (Genentech, Inc., priority 2006, dated 2013):

Experiments:
Assay type in all cases: biochemical
[1] = biological target: human PI3K isoform beta (p110 beta) (Homo sapiens, UniProt P42338); assay: p110 isoform selectivity scintillation proximity assay (SPA), beta isoform; details: fold potency over beta relative to alpha, calculated from IC50 values (SPA)
Procedure: (§1) Binding of Formula Ia and Ib compounds from Tables 1a and 1b to purified preparations of p110 isoforms alpha, beta, delta, and gamma was measured by a Scintillation Proximity Assay (SPA) to determine binding activity (IC50 μMol) and selectivity of binding of beta, delta, and gamma isoforms relative to alpha (Example 365). These values are expressed in Table 2.
(§2) The ability of Formula Ia and Ib compounds from Tables 1a and 1b to inhibit the lipid kinase activity of purified preparations of human PI3K isoforms alpha, beta, delta, and gamma was determined by a radiometric scintillation proximity assay (SPA, GE Healthcare, Amersham Biosciences). Concentration dependent inhibition at 50% (IC50 μMol) was determined for all four isoforms […] and fold potency over beta, delta, and gamma relative to alpha was calculated for a selection of compounds in Table 2. Each compound has a p110 alpha IC50<1 μMol.

[2] = biological target: human PI3K isoform delta (p110 delta) (Homo sapiens, UniProt O00329); assay: p110 isoform selectivity scintillation proximity assay (SPA), delta isoform; details: fold potency over delta relative to alpha, calculated from IC50 values (SPA)
human PI3K isoform delta (p110 delta), sequence (O00329 whole entry, canonical isoform): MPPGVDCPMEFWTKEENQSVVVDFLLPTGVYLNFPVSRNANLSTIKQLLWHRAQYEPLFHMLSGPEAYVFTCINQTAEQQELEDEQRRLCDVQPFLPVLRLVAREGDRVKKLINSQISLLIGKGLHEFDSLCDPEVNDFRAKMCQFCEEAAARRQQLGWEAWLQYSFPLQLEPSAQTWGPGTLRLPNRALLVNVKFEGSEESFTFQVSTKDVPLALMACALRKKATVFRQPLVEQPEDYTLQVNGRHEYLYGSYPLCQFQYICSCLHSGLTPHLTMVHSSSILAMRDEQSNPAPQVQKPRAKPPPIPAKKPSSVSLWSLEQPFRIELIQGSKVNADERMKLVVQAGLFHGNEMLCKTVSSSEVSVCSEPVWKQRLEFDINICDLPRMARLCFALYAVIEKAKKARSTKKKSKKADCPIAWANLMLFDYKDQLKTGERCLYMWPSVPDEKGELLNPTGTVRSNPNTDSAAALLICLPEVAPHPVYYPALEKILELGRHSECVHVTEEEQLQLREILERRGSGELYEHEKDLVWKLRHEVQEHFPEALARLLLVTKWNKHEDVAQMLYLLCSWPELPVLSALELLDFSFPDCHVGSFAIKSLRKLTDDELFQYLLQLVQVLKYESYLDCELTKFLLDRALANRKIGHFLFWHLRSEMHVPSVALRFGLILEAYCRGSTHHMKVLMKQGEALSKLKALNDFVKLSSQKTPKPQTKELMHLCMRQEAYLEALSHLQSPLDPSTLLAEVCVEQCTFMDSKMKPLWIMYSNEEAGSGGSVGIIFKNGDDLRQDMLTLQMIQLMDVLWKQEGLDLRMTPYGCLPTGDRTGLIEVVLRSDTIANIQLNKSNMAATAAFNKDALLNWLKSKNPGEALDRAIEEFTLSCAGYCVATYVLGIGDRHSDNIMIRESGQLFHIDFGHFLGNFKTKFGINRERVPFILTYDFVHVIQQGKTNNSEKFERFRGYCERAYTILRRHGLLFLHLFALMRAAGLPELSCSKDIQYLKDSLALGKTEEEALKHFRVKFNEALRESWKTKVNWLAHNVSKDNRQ
human PI3K isoform delta (p110 delta), sequence (P27986 whole entry partner, canonical isoform): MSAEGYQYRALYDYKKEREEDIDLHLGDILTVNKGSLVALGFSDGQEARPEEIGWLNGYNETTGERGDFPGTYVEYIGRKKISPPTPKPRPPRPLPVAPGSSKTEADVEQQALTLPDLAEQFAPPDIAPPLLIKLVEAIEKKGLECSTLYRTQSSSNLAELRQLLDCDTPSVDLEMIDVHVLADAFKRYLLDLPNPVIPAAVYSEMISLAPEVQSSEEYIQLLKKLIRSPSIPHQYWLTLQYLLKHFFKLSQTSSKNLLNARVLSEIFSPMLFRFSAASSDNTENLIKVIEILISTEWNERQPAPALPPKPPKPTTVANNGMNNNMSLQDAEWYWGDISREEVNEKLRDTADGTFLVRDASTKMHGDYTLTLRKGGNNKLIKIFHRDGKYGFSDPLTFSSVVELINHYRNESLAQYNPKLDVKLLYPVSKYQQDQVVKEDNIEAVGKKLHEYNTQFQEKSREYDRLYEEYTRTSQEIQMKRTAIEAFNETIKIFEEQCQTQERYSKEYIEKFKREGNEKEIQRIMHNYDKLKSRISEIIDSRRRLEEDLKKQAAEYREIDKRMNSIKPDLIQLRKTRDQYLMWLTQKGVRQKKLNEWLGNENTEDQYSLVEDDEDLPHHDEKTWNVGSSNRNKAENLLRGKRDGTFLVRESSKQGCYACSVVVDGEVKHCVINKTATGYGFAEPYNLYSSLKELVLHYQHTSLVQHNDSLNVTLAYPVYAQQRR
Procedure: as §1, §2

[3] = biological target: human PI3K isoform gamma (p110 gamma) (Homo sapiens, UniProt P48736); assay: p110 isoform selectivity scintillation proximity assay (SPA), gamma isoform; details: fold potency over gamma relative to alpha, calculated from IC50 values (SPA)
human PI3K isoform gamma (p110 gamma), sequence (P48736 whole entry, canonical isoform): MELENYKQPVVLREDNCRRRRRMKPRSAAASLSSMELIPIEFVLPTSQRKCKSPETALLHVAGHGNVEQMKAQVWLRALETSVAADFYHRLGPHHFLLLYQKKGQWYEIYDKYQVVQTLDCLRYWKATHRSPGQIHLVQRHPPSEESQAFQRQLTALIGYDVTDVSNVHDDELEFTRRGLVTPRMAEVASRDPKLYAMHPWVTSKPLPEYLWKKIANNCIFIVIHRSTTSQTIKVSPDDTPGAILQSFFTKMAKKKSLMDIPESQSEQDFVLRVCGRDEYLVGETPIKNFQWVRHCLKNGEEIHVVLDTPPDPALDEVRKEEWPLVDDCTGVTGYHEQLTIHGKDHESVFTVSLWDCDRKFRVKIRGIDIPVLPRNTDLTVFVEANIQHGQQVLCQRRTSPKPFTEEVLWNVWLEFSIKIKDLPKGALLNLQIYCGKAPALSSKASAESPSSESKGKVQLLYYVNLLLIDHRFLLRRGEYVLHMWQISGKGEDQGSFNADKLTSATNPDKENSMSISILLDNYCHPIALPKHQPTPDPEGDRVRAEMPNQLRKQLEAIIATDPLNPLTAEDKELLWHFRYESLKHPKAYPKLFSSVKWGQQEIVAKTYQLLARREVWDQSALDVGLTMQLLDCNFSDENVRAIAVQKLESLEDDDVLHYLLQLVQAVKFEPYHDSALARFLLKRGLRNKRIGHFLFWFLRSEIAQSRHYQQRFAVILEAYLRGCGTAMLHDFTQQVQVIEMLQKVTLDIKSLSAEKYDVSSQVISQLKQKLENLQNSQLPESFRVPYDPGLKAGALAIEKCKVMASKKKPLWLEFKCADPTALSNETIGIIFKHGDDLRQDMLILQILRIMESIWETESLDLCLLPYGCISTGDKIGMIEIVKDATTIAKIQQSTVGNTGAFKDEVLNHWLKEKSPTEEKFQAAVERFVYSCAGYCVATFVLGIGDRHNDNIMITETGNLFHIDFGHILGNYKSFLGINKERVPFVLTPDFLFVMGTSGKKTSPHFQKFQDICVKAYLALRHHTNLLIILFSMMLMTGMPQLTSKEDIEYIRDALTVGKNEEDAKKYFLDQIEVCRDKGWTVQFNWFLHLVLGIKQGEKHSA
Procedure: as §1, §2

human PI3K isoform beta (p110 beta), sequence (P42338 whole entry, canonical isoform): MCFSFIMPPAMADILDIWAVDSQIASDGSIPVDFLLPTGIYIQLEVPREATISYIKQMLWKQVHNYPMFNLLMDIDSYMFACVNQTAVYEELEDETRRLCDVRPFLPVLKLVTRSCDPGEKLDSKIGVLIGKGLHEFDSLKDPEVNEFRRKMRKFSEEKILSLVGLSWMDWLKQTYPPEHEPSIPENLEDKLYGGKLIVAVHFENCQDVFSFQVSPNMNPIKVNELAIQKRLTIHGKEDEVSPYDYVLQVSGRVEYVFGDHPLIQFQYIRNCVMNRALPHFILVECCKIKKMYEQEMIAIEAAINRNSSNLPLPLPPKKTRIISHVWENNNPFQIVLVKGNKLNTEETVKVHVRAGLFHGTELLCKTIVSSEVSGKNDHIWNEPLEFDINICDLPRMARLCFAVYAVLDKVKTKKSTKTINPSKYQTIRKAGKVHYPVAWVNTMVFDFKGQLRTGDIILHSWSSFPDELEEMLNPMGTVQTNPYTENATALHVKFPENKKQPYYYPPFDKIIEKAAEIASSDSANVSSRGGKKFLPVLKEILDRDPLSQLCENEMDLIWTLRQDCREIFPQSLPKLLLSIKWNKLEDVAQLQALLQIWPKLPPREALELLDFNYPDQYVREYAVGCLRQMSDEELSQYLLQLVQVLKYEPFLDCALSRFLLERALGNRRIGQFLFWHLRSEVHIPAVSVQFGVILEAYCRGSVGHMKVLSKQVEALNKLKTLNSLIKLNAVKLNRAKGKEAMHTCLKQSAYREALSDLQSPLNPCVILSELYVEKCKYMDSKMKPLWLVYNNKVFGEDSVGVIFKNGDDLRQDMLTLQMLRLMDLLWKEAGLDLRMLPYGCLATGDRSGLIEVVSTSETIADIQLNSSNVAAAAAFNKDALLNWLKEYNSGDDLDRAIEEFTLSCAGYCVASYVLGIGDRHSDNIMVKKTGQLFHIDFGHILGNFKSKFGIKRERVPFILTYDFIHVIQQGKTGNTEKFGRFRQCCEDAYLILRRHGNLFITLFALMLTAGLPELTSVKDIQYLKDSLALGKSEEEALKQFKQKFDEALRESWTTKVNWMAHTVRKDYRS
human PI3K isoform beta (p110 beta), sequence (P27986 whole entry partner, canonical isoform): as the sequence (P27986 whole entry partner, canonical isoform) above

| Compound | alpha/beta [1] | alpha/delta [2] | alpha/gamma [3] |
| --- | --- | --- | --- |
| CNC(=O)c1cccc(-c2cc3nc(-c4cccc5[nH]ncc45)nc(N4CCOCC4)c3s2)c1 [Compound 101, 3-(2-(1H-indazol-4-yl)-4-morpholinothieno[3,2-d]pyrimidin-6-yl)-N-methylbenzamide] | >10 | <10 | >10 |
| NCC(=O)Nc1cccc(-c2cc3nc(-c4cccc5[nH]ncc45)nc(N4CCOCC4)c3s2)c1 [Compound 137, N-(3-(2-(1H-indazol-4-yl)-4-morpholinothieno[3,2-d]pyrimidin-6-yl)phenyl)-2-aminoacetamide] | >10 | <10 | <10 |
| O=S(=O)(Nc1cccc(O)c1)c1cc2nc(-c3cccc4[nH]ncc34)nc(N3CCOCC3)c2s1 [Compound 208, 6-(3-hydroxyphenylaminosulfonyl)-2-(1H-indazol-4-yl)-4-morpholinothieno[3,2-d]pyrimidine] | >10 | <10 | >10 |
| O=S(=O)(NCCN1CCCCC1)c1cc2nc(-c3cccc4[nH]ncc34)nc(N3CCOCC3)c2s1 [Compound 218, 6-(2-piperidinylethylaminosulfonyl)-2-(1H-indazol-4-yl)-4-morpholinothieno[3,2-d]pyrimidine] | >10 | <10 | >10 |
| c1ccc(-c2cc3nc(-c4cccc5[nH]ncc45)nc(N4CCOCC4)c3o2)cc1 [Compound 233, 2-(1H-indazol-4-yl)-4-morpholino-6-phenylfuro[3,2-d]pyrimidine] | >10 | <10 | <10 |
| CC(=O)Nc1cccc(-c2cc3nc(-c4cccc5[nH]ncc45)nc(N4CCOCC4)c3s2)c1 [Compound 238, N-(3-(2-(1H-indazol-4-yl)-4-morpholinothieno[3,2-d]pyrimidin-6-yl)phenyl)acetamide] | >10 | <10 | >10 |
| CS(=O)(=O)c1cccc(-c2cc3nc(-c4cccc5[nH]ncc45)nc(N4CCOCC4)c3s2)c1 [Compound 265, 2-(1H-indazol-4-yl)-6-(3-(methylsulfonyl)phenyl)-4-morpholinothieno[3,2-d]pyrimidine] | >10 | <10 | >10 |
| O=C(NCc1cc2nc(-c3cccc4[nH]ncc34)nc(N3CCOCC3)c2s1)N1CCOCC1 [Compound 305, N-((2-(1H-indazol-4-yl)-4-morpholinothieno[3,2-d]pyrimidin-6-yl)methyl)morpholine-4-carboxamide] | <10 | <10 | >10 |
| C[C@H](O)CNC(=O)c1cccc(-c2cc3nc(-c4cccc5[nH]ncc45)nc(N4CCOCC4)c3s2)c1 [Compound 336, 3-(2-(1H-indazol-4-yl)-4-morpholinothieno[3,2-d]pyrimidin-6-yl)-N-((S)-2-hydroxypropyl)benzamide] | >10 | <10 | >10 |
| O=C(O)c1cccc(-c2cc3nc(-c4cccc5[nH]ncc45)nc(N4CCOCC4)c3s2)c1 [Compound 338, 3-(2-(1H-indazol-4-yl)-4-morpholinothieno[3,2-d]pyrimidin-6-yl)benzoic acid] | >10 | <10 | >10 |
| CS(=O)(=O)N1CCC(C(O)c2cc3nc(-c4cccc5[nH]ncc45)nc(N4CCOCC4)c3s2)CC1 (stereo not drawn) [Compound 353, (2-(1H-indazol-4-yl)-4-morpholinothieno[3,2-d]pyrimidin-6-yl)(4-N-methylsulfonylpiperidin-4-yl)methanol] | <10 | <10 | >10 |
| Cc1c(-c2cccc(S(C)(=O)=O)c2)sc2c(N3CCOCC3)nc(-c3cccc4[nH]ncc34)nc12 [Compound 360, 2-(1H-indazol-4-yl)-7-methyl-6-(3-(methylsulfonyl)phenyl)-4-morpholinothieno[3,2-d]pyrimidine] | >10 | >10 | >10 |
| COc1ccc(NCc2cc3nc(-c4cccc5[nH]ncc45)nc(N4CCOCC4)c3s2)cn1 [Compound 368, N-((2-(1H-indazol-4-yl)-4-morpholinothieno[3,2-d]pyrimidin-6-yl)methyl)-6-methoxypyridin-3-amine] | <10 | <10 | >10 |
| CC(C)(NC(=O)c1ccccc1)c1cc2nc(-c3cccc4[nH]ncc34)nc(N3CCOCC3)c2s1 [Compound 388, N-(2-(2-(1H-indazol-4-yl)-4-morpholinothieno[3,2-d]pyrimidin-6-yl)propan-2-yl)benzamide] | >10 | <10 | >10 |
| CN(Cc1cc2nc(-c3cccc4[nH]ncc34)nc(N3CCOCC3)c2s1)C(=O)c1ccccc1 [Compound 390, N-((2-(1H-indazol-4-yl)-4-morpholinothieno[3,2-d]pyrimidin-6-yl)methyl)-N-methylbenzamide] | <10 | <10 | <10 |

Results, then the molecule that gave them:

| alpha/beta [1] | alpha/delta [2] | alpha/gamma [3] | Compound |
| --- | --- | --- | --- |
| <10 | <10 | >10 | OC1(c2cc3nc(-c4cccc5[nH]ncc45)nc(N4CCOCC4)c3s2)CCC1 [Compound 133, 1-(2-(1H-indazol-4-yl)-4-morpholinothieno[3,2-d]pyrimidin-6-yl)cyclobutanol] |
| <10 | <10 | <10 | CCNC(=O)c1cc2nc(-c3cccc4[nH]ncc34)nc(N3CCOCC3)c2s1 [Compound 170, N-ethyl-2-(1H-indazol-4-yl)-4-morpholinothieno[3,2-d]pyrimidine-6-carboxamide] |
| <10 | <10 | >10 | O=C(NOCC1CC1)c1cc2nc(-c3cccc4[nH]ncc34)nc(N3CCOCC3)c2s1 [Compound 202, N-(cyclopropylmethoxy)-2-(1H-indazol-4-yl)-4-morpholinothieno[3,2-d]pyrimidine-6-carboxamide] |
| <10 | <10 | >10 | c1cc(-c2nc(N3CCOCC3)c3sc(-c4cn[nH]c4)cc3n2)c2cn[nH]c2c1 [Compound 203, 2-(1H-indazol-4-yl)-4-morpholino-6-(1H-pyrazol-4-yl)thieno[3,2-d]pyrimidine] |
| <10 | <10 | >10 | C[C@H](O)CNCc1cc2nc(-c3cccc4[nH]ncc34)nc(N3CCOCC3)c2s1 [Compound 205, (S)-1-((2-(1H-indazol-4-yl)-4-morpholinothieno[3,2-d]pyrimidin-6-yl)methylamino)propan-2-ol] |
| <10 | <10 | >10 | OCCNc1cc2nc(-c3cccc4[nH]ncc34)nc(N3CCOCC3)c2s1 [Compound 226, 2-(2-(1H-indazol-4-yl)-4-morpholinothieno[3,2-d]pyrimidin-6-ylamino)ethanol] |
| >10 | <10 | >10 | CC(C)(O)c1cc2nc(-c3cccc4[nH]ncc34)nc(N3CCOCC3)c2s1 [Compound 235, 2-(2-(1H-indazol-4-yl)-4-morpholinothieno[3,2-d]pyrimidin-6-yl)propan-2-ol] |
| >10 | <10 | >10 | OCc1cccc(-c2cc3nc(-c4cccc5[nH]ncc45)nc(N4CCOCC4)c3s2)c1 [Compound 237, (3-(2-(1H-indazol-4-yl)-4-morpholinothieno[3,2-d]pyrimidin-6-yl)phenyl)methanol] |
| <10 | <10 | >10 | O=C(NCCN1CCCCC1)c1cc2nc(-c3cccc4[nH]ncc34)nc(N3CCOCC3)c2s1 [Compound 257, 2-(1H-indazol-4-yl)-4-morpholino-N-(2-(piperidin-1-yl)ethyl)thieno[3,2-d]pyrimidine-6-carboxamide] |
| <10 | <10 | >10 | CN(C)C(=O)c1cc2nc(-c3cccc4[nH]ncc34)nc(N3CCOCC3)c2s1 [Compound 263, 2-(1H-indazol-4-yl)-N,N-dimethyl-4-morpholinothieno[3,2-d]pyrimidine-6-carboxamide] |
| 10 | <10 | >10 | CN(C)Cc1cc2nc(-c3cccc4[nH]ncc34)nc(N3CCOCC3)c2s1 [Compound 304, (2-(1H-indazol-4-yl)-4-morpholinothieno[3,2-d]pyrimidin-6-yl)-N,N-dimethylmethanamine] |
| <10 | <10 | >10 | c1cc(-c2nc(N3CCOCC3)c3sc(Cn4ccnc4)cc3n2)c2cn[nH]c2c1 [Compound 312, 6-((1H-imidazol-1-yl)methyl)-2-(1H-indazol-4-yl)-4-morpholinothieno[3,2-d]pyrimidine] |
| >10 | <10 | >10 | COC/C=C/c1cc2nc(-c3cccc4[nH]ncc34)nc(N3CCOCC3)c2s1 [Compound 334] |
